Source: patent US10813920B2, “Drug for treating corneal endothelium by promoting cell proliferation or inhibiting cell damage” (THE DOSHISHA, priority 2013, dated 2020)

Experiments:
Format in all cases: cell-based
[1] = system: cultured monkey corneal endothelial cells; test: UV-induced apoptosis of cultured monkey corneal endothelial cells, Annexin V and DAPI staining; settings: UV 100 J/m^2, after 9 hours of culture
Experimental: (§1) 1×10^5 cultured monkey corneal endothelial cells were seeded on a 12-well plate coated with an FNC Coating Mix and cultured for about 5 days until reaching confluence under the condition of 5% CO2 at 37° C.
(§2) Each inhibitor was then added at the concentration in the above-described Table and the cells were incubated for 16 hours under the condition of 5% CO2 at 37° C. The solvent of each reagent, Dimethyl Sulfoxide, Sterile-filtered (nacalai tesque, 13408-64) MSO, was added to the Control group and the UV group. Gibco DMEM, 1% P/S (penicillin/streptomycin) was used as the medium.
(§3) The cellular supernatant was then removed and the cells were irradiated with UV (100 J/m^2). After irradiation, cells were again added to a medium containing each inhibitor and cultured for 9 hours. The cell form and apoptosis were observed under a phase difference microscope.
The cells, after 9 hours of culture, were stained for 20 minutes at 37° C. by using MEBCYTO-Apoptosis Kit (Annexin V-FITC Kit) (manufacturer: MBL, Code: 4700). The cells were then immobilized for 10 minutes with 95% acetic acid ethanol. After immobilization, the cells were stained for 30 minutes with DAPI Solution (manufacturer: DOJINDO, Code: GA098) and observed under a confocal microscope.

[2] = system: human corneal endothelial cells; test: BrdU ELISA, one concentration per agent, human corneal endothelial cells (Example 9); settings: 10 μM SB203580, 1 μM Semapimod, 3 μM BIRB796, 1 μM PH-797804, 3 μM VX-702, 3 μM LY2228820, 3 μM TAK-715, * p<0.01
Experimental: The medium was removed from a culture dish culturing human corneal endothelial cells. PBS (-) heated to 37° C. in advance was added thereto and the cells were washed. This operation was repeated twice. After removing the PBS (-) TrypLE Select (×10) (GIBCO, A12177-01) was added and the cells were incubated for 10 minutes at 37° C. (5% CO2). The cells were then suspended in Opti-MEM (GIBCO, 31985-070) and centrifuged for 3 minutes at 1200 rpm to collect the cells. A 96-well plate was treated with an FNC coating mix (50 ml ([…], catalog number: 0407). The human corneal endothelial cells (lot: C1642-P8) were seeded in a Condition Medium for humans in the coated 96-well plate at a ratio of 3000 cells/well. The cells were cultured for 30 hours at 37° C. (5% CO2). After 30 hours, the medium was removed and changed to a serum free medium: Opti-MEM+1% P/S to culture the cells for 18 hours. […] SMC20120918), BIRB796 (Doramapimod) (Selleck Chemicals, catalog number: S1574, lot number: S157402), PH-797804 (Selleck Chemicals, catalog number: S2726, lot number: 01), VX-702 (Selleck Chemicals, catalog number: S6005, lot number: 02), LY2228820 (Selleck Chemicals, catalog number: S1494, lot number: 01), and TAK-715 (Selleck Chemical, catalog number: […] DMSO was added to the control. After 24 hours, a BrdU labeling reagent (Amersham Cell Proliferation Biotrak ELISA System, Version 2, GE Healthcare, catalog number: RPN250) was further added at a ratio of 1:1000 to the DMEM+10% FBS+1% P/S medium. […] DMSO was added to the control. After 24 hours, BrdU ELISA was carried out with Amersham Cell Proliferation Biotrak ELISA System, Version 2 (GE Healthcare, catalog number: RPN250). The absorbance at 450 nm was measured.

corneal endothelium = test: UV-induced apoptosis of corneal endothelium in rabbit sclerocornea segments, Annexin V and DAPI staining; settings: rabbit corneal tissue; UV 100 J/m^2; stored 24 hours at 4° C.; 10 μM SB203580, 3 μM BIRB796, 1 μM PH-797804, 3 μM VX-702, 3 μM LY2228820, 3 μM TAK-715
Experimental: The experiment used a rabbit eye ball 0-24 hours after euthanasia. Sclerocornea was removed along the corneal limbus under a stereo microscope by using spring scissors. The crystalline lens and iris were removed to make a sclerocornea segment. […] After dividing a cornea, pretreatment was applied to the Control group for 2 hours in the dark with Optisol-GS® (Bausch & Lomb) (Lot. […] After washing the cornea twice with PBS(−), 100 J/m^2 of UV was irradiated onto the corneal endothelial cells, which were against stored for 24 hours at 4° C. […] The sclerocornea segments were washed with PBS(−), and MEBCYTO-Apoptosis kit (Annexin V-FITC kit) (MBL) (Lot. 027FA) was used for Annexin V and DAPI staining. The segments were immersed and immobilized for 30 minutes in −30° C. ice-cooled 95% ethanol. In order to remove ethanol components, PBS(−) was exchanged every 5 minutes and the segments were washed three times. An antifading agent was then added and enclosed. Annexin V and nuclei was observed by fluorescence imaging under a confocal microscope. The percentage of Annexin V positive cells were calculated in the above-described rabbit corneal tissue. *p<0.05 (Dunnett's test).

[3] = system: cultured monkey corneal endothelial cells; test: UV-induced cell death of cultured monkey corneal endothelial cells (phase difference microscope); settings: UV 100 J/m^2; 9 hours after irradiation; 10 μM SB203580, 3 μM BIRB796, 1 μM PH-797804, 3 μM VX-702, 3 μM LY2228820, 3 μM TAK-715
Experimental: as §1
Medium: Dulbecco's Modified Eagle Medium (DMEM, Gibco, 12320-032), 10% FBS, 1% Penicillin-Streptomycin (nacalai tesque, 26252-94)
as §2, §3

## Cc1ccc(-n2nc(C(C)(C)C)cc2NC(=O)Nc2ccc(OCCN3CCOCC3)c3ccccc23)cc1 [BIRB796, N-[3-tert-butyl-1-(4-methylphenyl)pyrazole-5-yl]-N′-[4-(2-morpholinoethoxy)-1-naphthyl]urea]
[1]
  Apoptosis induced by UV (annexin V staining): suppressed
[2]
  BrdU uptake as a percentage with respect to the control (proliferation): promotes proliferation
Corneal endothelium
  Apoptosis induced by UV (annexin V staining): suppressed
[3]
  Cellular disorders (cell death) induced by UV: suppressed

## CC(C)(C)Cn1c(N)nc2ccc(-c3nc(C(C)(C)C)[nH]c3-c3ccc(F)cc3)nc21 [LY2228820, 5-(2-(tert-butyl)-5-(4-fluorophenyl)-1H-imidazole-4-yl)-3-neopentyl-3H-imidazo[4,5-b]pyridine-2-amine]
[1]
  Apoptosis induced by UV (annexin V staining): suppressed
[2]
  BrdU uptake as a percentage with respect to the control (proliferation): promotes proliferation
Corneal endothelium
  Apoptosis induced by UV (annexin V staining): suppressed
[3]
  Cellular disorders (cell death) induced by UV: suppressed

## CNC(=O)c1ccc(C)c(-n2c(C)cc(OCc3ccc(F)cc3F)c(Br)c2=O)c1 [PH-797804, 3-(3-bromo-4-((2,4-difluorobenzyl)oxy)-6-methyl-2-oxopyridine-1(2H)-yl)-N,4-dimethylbenzamide]
[1]
  Apoptosis induced by UV (annexin V staining): suppressed
[2]
  BrdU uptake as a percentage with respect to the control (proliferation): promotes proliferation
Corneal endothelium
  Apoptosis induced by UV (annexin V staining): suppressed
[3]
  Cellular disorders (cell death) induced by UV: suppressed

## C[S+]([O-])c1ccc(-c2nc(-c3ccncc3)c(-c3ccc(F)cc3)[nH]2)cc1 (centres unmarked) [SB203580, 4-(4-fluorophenyl)-2-(4-methylsulfinylphenyl)-5-(4-pyridyl)-1H-imidazole]
[1]
  Apoptosis induced by UV (annexin V staining): suppressed
[2]
  BrdU uptake as a percentage with respect to the control (proliferation): promotes proliferation
Corneal endothelium
  Apoptosis induced by UV (annexin V staining): suppressed
[3]
  Cellular disorders (cell death) induced by UV: suppressed

## CCc1nc(-c2cccc(C)c2)c(-c2ccnc(NC(=O)c3ccccc3)c2)s1 [TAK-715, 2-benzamide-4-[2-ethyl-4-(3-methylphenyl)thiazole-5-yl]pyridine]
[1]
  Apoptosis induced by UV (annexin V staining): suppressed
[2]
  BrdU uptake as a percentage with respect to the control (proliferation): promotes proliferation
Corneal endothelium
  Apoptosis induced by UV (annexin V staining): suppressed
[3]
  Cellular disorders (cell death) induced by UV: suppressed
